Earlier results as cited in article PMC5763161 (Molecular Therapy, 2017).

System: dystrophin exon skipping
Conditions: mdx mice

ASSLNIA
delivery or exon-skipping levels when conjugated to a PMO: unable to increase
